Active and inactive are the calls of the source.
Legend:
[1] = biological target: T1, Methionyl-tRNA synthetase, putative (Trypanosoma brucei brucei, UniProt Q38C91); format: functional, Trypanosoma brucei brucei strain 927/4 GUTat10.1
T1 sequence (Q38C91 whole entry): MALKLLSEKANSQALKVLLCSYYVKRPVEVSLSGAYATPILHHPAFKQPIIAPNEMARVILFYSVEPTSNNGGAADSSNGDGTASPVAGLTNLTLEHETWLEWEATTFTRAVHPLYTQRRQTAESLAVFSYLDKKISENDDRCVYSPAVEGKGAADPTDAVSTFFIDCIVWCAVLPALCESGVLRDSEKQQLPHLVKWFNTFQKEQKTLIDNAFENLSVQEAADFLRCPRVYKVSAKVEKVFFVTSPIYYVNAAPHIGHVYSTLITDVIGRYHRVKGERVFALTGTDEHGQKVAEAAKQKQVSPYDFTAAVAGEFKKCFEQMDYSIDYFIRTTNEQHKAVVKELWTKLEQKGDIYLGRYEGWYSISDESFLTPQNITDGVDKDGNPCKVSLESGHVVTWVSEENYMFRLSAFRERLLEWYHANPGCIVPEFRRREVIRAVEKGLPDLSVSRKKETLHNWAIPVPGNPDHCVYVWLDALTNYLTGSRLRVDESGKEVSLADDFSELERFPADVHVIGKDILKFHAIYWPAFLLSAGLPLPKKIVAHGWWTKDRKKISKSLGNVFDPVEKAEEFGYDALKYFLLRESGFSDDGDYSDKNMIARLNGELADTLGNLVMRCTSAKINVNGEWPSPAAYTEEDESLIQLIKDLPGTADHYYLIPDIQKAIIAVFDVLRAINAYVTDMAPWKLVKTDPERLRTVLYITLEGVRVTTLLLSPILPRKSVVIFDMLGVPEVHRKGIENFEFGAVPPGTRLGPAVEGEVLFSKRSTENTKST

[2] = biological target: T1, Methionyl-tRNA synthetase, putative; format: functional, Trypanosoma brucei brucei strain 927/4 GUTat10.1; remark: listed apart in the source
Leucine aminopeptidase = biological target: T2, Leucine aminopeptidase (Plasmodium falciparum 3D7, UniProt Q8IL11); test: P. falciparum M17LAP inhibitors, primary screen, biochemical, fluorogenic H-Leu-NHMec substrate, 1536-well (AID 1619); format: functional
T2 sequence (Q8IL11 whole entry): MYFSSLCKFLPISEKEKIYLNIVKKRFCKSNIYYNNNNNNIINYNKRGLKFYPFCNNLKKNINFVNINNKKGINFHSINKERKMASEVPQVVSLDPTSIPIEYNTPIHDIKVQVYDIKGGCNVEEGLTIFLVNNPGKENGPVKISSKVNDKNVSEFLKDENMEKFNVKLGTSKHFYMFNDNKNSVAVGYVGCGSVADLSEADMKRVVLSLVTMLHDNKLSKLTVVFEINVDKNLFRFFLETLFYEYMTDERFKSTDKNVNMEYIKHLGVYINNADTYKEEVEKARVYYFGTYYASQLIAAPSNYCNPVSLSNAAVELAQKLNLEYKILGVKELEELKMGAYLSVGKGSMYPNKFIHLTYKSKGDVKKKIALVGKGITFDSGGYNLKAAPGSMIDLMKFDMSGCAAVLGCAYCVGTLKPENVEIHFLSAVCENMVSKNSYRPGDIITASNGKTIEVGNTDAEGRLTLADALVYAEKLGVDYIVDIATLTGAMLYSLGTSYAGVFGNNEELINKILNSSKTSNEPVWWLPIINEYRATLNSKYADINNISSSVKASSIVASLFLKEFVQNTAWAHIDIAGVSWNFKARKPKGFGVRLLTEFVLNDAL

Aminopeptidase N = biological target: T3, Aminopeptidase N (Plasmodium falciparum FcB1/Columbia, UniProt O96935); test: malaria alanyl aminopeptidase activity blockers – biochemical, fluorogenic H-Leu-NHMec substrate, 1536-well (AID 1445); design: species or system Plasmodium falciparum 3D7, 3D7
T3 sequence (O96935 whole entry): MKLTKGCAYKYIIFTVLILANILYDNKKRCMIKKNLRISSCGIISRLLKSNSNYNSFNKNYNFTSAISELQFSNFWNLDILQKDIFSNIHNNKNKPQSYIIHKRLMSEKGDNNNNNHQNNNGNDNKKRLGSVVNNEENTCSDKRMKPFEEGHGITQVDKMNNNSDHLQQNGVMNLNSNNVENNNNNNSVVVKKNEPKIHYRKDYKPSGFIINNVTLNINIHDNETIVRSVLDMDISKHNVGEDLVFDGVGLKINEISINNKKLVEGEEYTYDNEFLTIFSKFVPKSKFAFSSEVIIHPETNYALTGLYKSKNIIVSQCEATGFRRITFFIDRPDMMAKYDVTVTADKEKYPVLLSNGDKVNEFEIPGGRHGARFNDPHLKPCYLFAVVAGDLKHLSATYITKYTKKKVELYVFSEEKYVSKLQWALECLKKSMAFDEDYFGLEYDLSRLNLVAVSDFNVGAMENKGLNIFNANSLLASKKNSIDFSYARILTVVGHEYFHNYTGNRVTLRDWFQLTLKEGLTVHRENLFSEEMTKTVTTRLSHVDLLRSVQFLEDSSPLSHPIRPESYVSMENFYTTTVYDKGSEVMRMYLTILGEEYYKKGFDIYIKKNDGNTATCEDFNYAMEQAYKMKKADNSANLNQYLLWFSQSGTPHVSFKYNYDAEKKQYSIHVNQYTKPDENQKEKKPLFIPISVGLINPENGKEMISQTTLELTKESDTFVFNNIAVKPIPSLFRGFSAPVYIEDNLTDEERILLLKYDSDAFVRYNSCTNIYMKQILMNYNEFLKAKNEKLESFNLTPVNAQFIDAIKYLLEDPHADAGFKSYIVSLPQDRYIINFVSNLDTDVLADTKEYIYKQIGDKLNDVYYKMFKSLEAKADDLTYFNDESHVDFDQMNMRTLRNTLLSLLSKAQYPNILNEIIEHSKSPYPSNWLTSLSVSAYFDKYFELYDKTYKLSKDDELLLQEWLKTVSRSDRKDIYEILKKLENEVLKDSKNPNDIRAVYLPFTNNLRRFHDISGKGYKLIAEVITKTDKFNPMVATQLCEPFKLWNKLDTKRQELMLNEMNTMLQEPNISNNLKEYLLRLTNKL

[3] = biological target: T4, Short transient receptor potential channel 4 (Mus musculus, UniProt Q9QUQ5); test: block of DAMGO-driven TRPC4 calcium entry – cell-based, HEK293 TRPC4/mu-opioid, Fluo-4 calcium, dose response (AID 434942); format: functional;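 further: potency of inhibitors blocking the TRPC4 calcium response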
T4 sequence (Q9QUQ5 whole entry): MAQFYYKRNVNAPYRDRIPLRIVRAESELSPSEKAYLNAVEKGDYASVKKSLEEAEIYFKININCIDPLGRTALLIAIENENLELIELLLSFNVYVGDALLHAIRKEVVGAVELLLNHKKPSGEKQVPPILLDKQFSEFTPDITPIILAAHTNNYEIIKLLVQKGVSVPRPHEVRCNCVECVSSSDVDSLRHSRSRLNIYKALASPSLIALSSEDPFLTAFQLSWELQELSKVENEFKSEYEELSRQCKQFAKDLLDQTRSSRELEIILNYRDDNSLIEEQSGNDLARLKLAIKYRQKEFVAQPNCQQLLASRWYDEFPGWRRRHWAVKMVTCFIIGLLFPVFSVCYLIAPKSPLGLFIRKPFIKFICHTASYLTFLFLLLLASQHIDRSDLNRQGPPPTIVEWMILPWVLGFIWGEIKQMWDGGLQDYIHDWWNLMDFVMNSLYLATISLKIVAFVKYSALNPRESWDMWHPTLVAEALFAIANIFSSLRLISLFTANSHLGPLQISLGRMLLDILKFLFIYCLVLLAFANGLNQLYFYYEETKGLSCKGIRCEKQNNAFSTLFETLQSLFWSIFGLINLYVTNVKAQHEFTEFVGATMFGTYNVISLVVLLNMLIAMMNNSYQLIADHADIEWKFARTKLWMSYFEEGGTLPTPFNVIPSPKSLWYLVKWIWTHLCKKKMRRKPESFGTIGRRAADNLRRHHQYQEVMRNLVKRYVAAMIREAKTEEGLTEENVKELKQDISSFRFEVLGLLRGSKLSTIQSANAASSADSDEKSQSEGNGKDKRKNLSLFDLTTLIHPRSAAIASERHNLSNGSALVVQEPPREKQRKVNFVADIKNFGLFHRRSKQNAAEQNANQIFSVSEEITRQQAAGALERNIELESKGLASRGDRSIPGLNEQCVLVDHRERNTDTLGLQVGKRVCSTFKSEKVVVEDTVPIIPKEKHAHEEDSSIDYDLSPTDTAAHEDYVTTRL

[4] = Counterscreen for inhibitors of Trypanosoma brucei methionyl tRNA synthetase (MetRS): Luminescence-based cell-based high throughput dose response assay to identify compounds that are cytotoxic to Jurkat human T lymphocyte cells.; format: functional
[5] = biological target: Luciferin 4-monooxygenase (Photinus pyralis, UniProt P08659); test: inhibition of purified Photinus pyralis luciferase – biochemical, luminescence, dose response (AID 1891)
[6] = Luminescence Cell-Based Dose Confirmation HTS to Identify Inhibitors of Platelet Dense Granule Release. [Related pubchem assays: 1663 (Primary HTS), 1678 (Summary of Project)]; format: functional
Fatty acid synthase [7] = biological target: T5, Fatty acid synthase (Homo sapiens, UniProt P49327); test: inhibition of human FAS-TE enzyme activity – biochemical, endpoint fluorescence intensity, uHTS hits, dose response (AID 624327); format: functional;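 further: fluorescence from hydrolysis of an O-methyl fluorescein acyl ester substrate by the enzyme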
Fatty acid synthase [8] = biological target: T5, Fatty acid synthase; test: inhibition of human FAS-TE enzyme activity – biochemical, kinetic fluorescence intensity, dose response (AID 624326); format: functional;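 further: rate of fluorescence rise from hydrolysis of a fluorogenic O-methyl fluorescein ester substrate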
[9] = biological target: T6, Microphthalmia-associated transcription factor (Homo sapiens, UniProt O75030); test: reducers of TRPM1 reporter luminescence, concentration series – cell-based, SK-MEL-5, cherry-picked, set 3, MITF inhibitor project, dose response (AID 493073); format: functional;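 further: SK-MEL-5 melanoma cells with luciferase driven by the MITF target TRPM1 promoter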
T6 sequence (O75030 whole entry): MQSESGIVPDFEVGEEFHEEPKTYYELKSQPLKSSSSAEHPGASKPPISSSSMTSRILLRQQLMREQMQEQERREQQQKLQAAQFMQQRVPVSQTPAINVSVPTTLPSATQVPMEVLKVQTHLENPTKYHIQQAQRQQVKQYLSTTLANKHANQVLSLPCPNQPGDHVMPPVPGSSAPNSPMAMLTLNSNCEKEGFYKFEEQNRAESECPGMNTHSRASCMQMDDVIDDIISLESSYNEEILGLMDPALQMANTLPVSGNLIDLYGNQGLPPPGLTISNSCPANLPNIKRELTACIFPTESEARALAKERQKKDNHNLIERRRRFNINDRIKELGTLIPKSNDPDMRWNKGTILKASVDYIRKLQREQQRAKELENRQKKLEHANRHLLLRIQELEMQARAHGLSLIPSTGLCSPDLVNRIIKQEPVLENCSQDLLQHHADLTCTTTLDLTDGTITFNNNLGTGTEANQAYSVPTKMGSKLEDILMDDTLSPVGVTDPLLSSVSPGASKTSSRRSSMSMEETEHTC

INS1 = test: INS-1E survival protection against cytokine death – cell-based, luminescence, retest, dose response (AID 449756); format: functional; settings: Rattus norvegicus;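 further: cell death triggered by IL-1 beta plus TNF-alpha plus IFN-gamma mixture; protective hits raise ATP signal compared with cytokine alone wells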
[10] = HEK-293T cell viability reduction – luminescence, B-cell screen hits, cytotoxicity control for BCR NF-kB inhibitor project, dose response (AID 489021); format: functional, cell-based;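 further: HEK-293T cells carrying an NF-kB luciferase reporter; cells exposed to compound for about 14 hours before viability readout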
cells = format: functional

T5 sequence (P49327 whole entry): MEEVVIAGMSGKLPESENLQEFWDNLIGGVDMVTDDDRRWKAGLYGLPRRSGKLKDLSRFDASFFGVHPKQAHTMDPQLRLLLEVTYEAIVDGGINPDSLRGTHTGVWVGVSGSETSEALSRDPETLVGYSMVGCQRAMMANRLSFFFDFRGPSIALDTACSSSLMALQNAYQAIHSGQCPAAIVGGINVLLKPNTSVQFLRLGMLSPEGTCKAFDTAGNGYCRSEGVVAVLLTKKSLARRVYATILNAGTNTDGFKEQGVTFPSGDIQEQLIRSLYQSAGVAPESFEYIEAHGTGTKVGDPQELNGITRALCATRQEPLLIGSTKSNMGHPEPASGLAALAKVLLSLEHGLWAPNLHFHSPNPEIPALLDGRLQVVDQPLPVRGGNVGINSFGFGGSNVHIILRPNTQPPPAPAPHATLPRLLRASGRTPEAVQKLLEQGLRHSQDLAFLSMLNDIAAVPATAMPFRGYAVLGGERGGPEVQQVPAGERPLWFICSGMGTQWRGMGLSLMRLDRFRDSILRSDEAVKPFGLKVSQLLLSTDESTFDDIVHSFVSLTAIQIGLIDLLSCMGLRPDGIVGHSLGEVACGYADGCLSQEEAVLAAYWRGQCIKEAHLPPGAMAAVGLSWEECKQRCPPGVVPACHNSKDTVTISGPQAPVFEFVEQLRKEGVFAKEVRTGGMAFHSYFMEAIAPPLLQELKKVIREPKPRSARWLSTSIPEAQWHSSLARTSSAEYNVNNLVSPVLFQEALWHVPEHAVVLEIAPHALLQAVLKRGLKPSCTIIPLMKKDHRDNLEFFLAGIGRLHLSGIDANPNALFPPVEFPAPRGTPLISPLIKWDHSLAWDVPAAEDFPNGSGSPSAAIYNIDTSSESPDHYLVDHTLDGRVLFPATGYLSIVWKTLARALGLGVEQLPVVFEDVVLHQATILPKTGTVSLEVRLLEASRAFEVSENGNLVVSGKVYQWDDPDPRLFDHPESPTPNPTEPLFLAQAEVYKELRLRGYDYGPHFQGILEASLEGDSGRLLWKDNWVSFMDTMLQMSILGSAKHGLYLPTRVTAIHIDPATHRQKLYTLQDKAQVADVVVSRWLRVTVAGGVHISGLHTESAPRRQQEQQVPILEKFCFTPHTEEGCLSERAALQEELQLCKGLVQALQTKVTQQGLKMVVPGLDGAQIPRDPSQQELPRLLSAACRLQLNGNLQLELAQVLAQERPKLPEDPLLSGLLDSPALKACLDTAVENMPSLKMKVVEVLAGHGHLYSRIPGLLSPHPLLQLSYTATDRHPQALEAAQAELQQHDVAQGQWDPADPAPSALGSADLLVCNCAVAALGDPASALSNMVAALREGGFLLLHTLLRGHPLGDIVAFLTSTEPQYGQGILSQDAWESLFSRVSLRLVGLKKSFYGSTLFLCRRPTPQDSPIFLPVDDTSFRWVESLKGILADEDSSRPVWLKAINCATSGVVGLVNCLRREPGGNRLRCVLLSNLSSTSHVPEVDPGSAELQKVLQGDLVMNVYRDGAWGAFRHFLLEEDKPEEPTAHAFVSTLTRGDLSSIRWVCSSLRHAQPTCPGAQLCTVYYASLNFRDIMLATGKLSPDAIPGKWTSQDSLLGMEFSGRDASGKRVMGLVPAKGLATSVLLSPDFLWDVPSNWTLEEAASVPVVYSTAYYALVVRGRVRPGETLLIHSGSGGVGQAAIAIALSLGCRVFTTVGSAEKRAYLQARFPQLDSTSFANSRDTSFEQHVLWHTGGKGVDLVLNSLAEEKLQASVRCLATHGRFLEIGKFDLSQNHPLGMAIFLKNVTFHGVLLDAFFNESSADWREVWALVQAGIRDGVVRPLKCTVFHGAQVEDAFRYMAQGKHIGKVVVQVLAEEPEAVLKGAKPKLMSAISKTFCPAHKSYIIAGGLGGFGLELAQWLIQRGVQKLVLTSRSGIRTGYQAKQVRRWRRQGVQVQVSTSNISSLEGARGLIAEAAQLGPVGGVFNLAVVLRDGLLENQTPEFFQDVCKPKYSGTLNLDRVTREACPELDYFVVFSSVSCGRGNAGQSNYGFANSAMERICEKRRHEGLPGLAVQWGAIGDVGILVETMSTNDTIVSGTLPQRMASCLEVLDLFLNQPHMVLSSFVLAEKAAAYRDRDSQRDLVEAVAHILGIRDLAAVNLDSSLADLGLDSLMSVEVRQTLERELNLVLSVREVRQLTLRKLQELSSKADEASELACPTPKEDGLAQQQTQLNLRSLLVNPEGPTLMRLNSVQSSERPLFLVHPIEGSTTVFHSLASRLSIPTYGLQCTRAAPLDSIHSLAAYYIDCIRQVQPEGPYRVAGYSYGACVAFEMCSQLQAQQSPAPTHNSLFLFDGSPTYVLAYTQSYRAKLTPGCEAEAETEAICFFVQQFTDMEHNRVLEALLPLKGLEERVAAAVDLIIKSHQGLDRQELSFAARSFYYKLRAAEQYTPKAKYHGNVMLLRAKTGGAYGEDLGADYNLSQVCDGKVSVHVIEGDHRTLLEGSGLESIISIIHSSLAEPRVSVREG
Luciferin 4-monooxygenase, sequence (P08659 whole entry): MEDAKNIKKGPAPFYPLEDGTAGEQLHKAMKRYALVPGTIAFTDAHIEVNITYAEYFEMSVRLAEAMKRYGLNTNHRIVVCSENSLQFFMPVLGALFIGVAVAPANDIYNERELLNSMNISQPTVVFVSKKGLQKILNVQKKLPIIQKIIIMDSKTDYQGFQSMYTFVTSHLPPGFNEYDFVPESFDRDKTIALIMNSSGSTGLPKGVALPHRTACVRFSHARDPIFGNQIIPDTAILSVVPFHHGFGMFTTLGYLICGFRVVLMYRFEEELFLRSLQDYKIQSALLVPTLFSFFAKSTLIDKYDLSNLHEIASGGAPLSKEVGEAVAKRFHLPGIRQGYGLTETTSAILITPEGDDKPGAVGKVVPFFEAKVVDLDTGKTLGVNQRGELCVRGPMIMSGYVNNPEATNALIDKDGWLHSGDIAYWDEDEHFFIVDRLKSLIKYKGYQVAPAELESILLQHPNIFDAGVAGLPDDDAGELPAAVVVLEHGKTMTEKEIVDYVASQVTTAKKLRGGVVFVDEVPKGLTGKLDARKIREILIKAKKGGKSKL

## NS(=O)(=O)c1ccc(CCNC(=O)c2cc(-c3cc(Cl)ccc3O)n[nH]2)cc1
[1]
  IC50: 14.4 µM (inactive)
[2]
  IC50: 119 µM (inactive)

## O=C(O)C1CCCCC1C(=O)Nc1cc(C(F)(F)F)ccc1Cl (stereo unspecified)
Leucine aminopeptidase
  IC50: 17.5 µM (active)

## CCOc1cc(C2C3=C(CCCC3=O)OC3=C2C(=O)CCC3)cc([N+](=O)[O-])c1O
Aminopeptidase N
  IC50: 46.3 µM (active)

## Cc1ccc(C)c2nc(O)c(CN(CC3CCCO3)C(S)=NCc3ccco3)cc12 (stereo unspecified)
[3]
  EC50: 2.11 µM (active)

## CCN(CC)C(=O)C(=O)c1cn(CC(=O)NCc2ccc3c(c2)OCO3)c2ccccc12
[4]
  IC50: 83.3 µM (inactive)
[1]
  IC50: 4.83 µM (active)
[2]
  IC50: 14.4 µM (inactive)

## Cc1ccccc1NC(=O)CN1C(=O)NC2(CCCCC2)C1=O
Leucine aminopeptidase
  IC50: 71.9 µM (active)

## O=C(O)c1ccc(N=Nc2c(O)[nH]c3ccccc23)cc1
[5]
  EC50: 0.365 µM (active)
[6]
  EC50: 0.937 µM (active)
Leucine aminopeptidase
  IC50: 84.3 µM (active)

## CC(C)(C)C1CCc2c(C(=O)NNC(=O)CCC(=O)O)csc2C1 (stereo unspecified)
Leucine aminopeptidase
  IC50: 14.5 µM (active)

## O=C(O)CCCC(=O)N1N=C(c2c(O)nc3ccc(Cl)cc3c2-c2ccccc2)CC1c1cccs1 (stereo unspecified)
Aminopeptidase N
  IC50: 20.3 µM (active)

## Cc1c(OCc2nn[nH]n2)ccc2c(-c3ccccc3)cc(=O)oc12
Fatty acid synthase [7]
  IC50: 1.59 µM (active)
Leucine aminopeptidase
  IC50: 95.1 µM (active)
Fatty acid synthase [8]
  IC50: 1.61 µM (active)

## Cc1ccc(-c2c[n+](-c3ccc(SC(F)F)cc3)c3n2CCC3)cc1
[9]
  AC50: 1.64 µM (active)
INS1
  AC50: 5.09 µM (active)

## CC(=O)OC1(c2ccccc2)CCN(C2CCCCC2)CC1C (stereo unspecified)
[3]
  EC50: 1.06 µM (active)

## CCCN1C(=O)/C(=C/c2c(N3CCNC(=O)C3CC(=O)OCC)nc3c(C)cccn3c2=O)SC1=S (stereo unspecified)
Aminopeptidase N
  IC50: 34.1 µM (active)
[10]
  IC50: 50 µM (inactive)

## O=C(CN1CCN(Cc2ccccc2Cl)CC1)N=Nc1c(O)[nH]c2ccccc12
[3]
  EC50: 0.376 µM (active)

## CCCn1c(=N)n(CC(=O)C(C)(C)C)c2ccccc21
[3]
  EC50: 5.31 µM (active)

## O=C(O)CCC(=O)Nc1sc2c(c1C(=O)Nc1cccc3ccccc13)CCCCC2
Leucine aminopeptidase
  IC50: 51 µM (active)

## OC(c1cc(Cl)cc(Cl)c1)c1nc(-c2ccccc2C(F)(F)F)c[nH]1 (stereo unspecified)
[4]
  IC50: 59.4 µM (inactive)
[1]
  IC50: 2.88 µM (active)
[2]
  IC50: 4.05 µM (active)

## CCOc1ccc(NC(=O)CCC(=O)N/N=C/c2ccc([N+](=O)[O-])s2)cc1
cells
  IC50: 13.6 µM (active)
[9]
  AC50: 6.21 µM (active)

## Cc1ncc(CO)c(/C=N/NC(=O)c2ccc(Br)cc2)c1O
Aminopeptidase N
  IC50: 14.4 µM (active)

Reference: ChEMBL document CHEMBL1201862, “PubChem BioAssay data set” (2004)
